Laboratory results as given in PMC12371036 (Nature Communications, 2025).
Where a chain is given by its changes, count along the chain named.

T1: UVR8^D96N/D107N (constitutive monomer) (Arabidopsis thaliana, UniProt Q9FN03, D96N/D107N)
T1 sequence (Q9FN03 1-440 D96N/D107N): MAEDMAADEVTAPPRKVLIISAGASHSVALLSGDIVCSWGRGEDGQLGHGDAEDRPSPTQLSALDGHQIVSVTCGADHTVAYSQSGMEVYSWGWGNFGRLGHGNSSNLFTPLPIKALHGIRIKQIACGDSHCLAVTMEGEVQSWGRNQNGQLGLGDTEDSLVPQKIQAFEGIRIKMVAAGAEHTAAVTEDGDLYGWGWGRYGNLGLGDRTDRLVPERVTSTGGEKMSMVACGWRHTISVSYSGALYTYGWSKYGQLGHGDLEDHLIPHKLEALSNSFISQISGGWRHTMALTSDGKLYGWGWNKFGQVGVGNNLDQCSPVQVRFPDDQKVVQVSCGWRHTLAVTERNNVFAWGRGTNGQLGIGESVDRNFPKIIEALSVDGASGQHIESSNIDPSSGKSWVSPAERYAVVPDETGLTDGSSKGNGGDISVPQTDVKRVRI

T2: His-SUMO-UVR8 (wild-type UV … LOCUS8) (Arabidopsis thaliana), Q9FN03
T2 chain: T1 sequence (Q9FN03 1-440 D96N/D107N) with N96D, N107D

B1: His-SUMO-UVR8 (wild-type UV … LOCUS8), Q9FN03 1-440 (natural protein)
chain: T1 sequence (Q9FN03 1-440 D96N/D107N) with N96D, N107D

Experiments:
[1] = target: T1, UVR8^D96N/D107N (constitutive monomer); experiment: nanoDSF Tm increase with purified recombinant protein; assay type: binding
[2] = target: UVR8 (UV RESISTANCE LOCUS8) (Arabidopsis thaliana, UniProt Q9FN03); experiment: MST; assay type: binding
Chain of UVR8 (UV RESISTANCE LOCUS8) (Q9FN03 whole entry): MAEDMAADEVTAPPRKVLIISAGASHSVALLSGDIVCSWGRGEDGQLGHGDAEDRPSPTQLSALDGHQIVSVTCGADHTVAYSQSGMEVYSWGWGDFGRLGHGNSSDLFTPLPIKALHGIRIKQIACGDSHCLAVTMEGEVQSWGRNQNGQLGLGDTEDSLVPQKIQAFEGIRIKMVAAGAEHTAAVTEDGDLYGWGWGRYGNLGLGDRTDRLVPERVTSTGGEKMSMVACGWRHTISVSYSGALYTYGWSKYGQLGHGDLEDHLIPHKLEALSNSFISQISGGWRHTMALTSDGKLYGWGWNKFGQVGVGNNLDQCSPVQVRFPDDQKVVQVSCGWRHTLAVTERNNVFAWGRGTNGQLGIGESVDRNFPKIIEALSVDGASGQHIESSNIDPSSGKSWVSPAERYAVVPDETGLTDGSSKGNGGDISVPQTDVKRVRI

[3] = target: T2, His-SUMO-UVR8 (wild-type UV … LOCUS8) …; experiment: SEC; details: remark: other sources report otherwise

Molecule	nanoDSF Tm increase with purified recombinant protein [1]	Kd [2]	stoichiometry N [3]
O=C(/C=C/c1ccc(O)cc1)c1c(O)cc(O)cc1O [NGC, naringenin chalcone]	significant increase in Tm was observed when NGC was incubated with the three monomeric forms	~12 µM	
B1			2
